In PMC10447463, “Data-mining unveils structure–property–activity correlation of viral infectivity enhancing self-assembling peptides” (Nature Communications, 2023):
Where two headings read alike, the source gives them in different places.

Columns and labels:
[1] = format: physicochemical; design: key to Fibril / Fibril Formation / TEM 2cat / Fibril: 1 = fibrils present; 0 non-fibrillar structures; conditions: for Fibril / Fibril Formation: 1 mg/mL, uranyl acetate stain, qualitative
[2] = Zeta-potential measurement; format: physicochemical
Outline: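 PBS pH 7.4, 1 mg/mL peptide (DMSO stock), 1 d RT aggregation; diluted in 1 mM KCl pre-read; mobility → zeta (Smoluchowski); n = 3, 2 expts averaged.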

[3] = Turbidity, derived count rate of scattered light; format: physicochemical; conditions: for Count Rate / kcps: derived count rate of scattered light at 633 nm, 173°, from zeta-potential measurement, 0.1 mg/mL in 1 mM KCl after 1 d at 1 mg/mL in PBS, turbidity / microscopic aggregation, mean of triplicate
Outline: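 One-day room-temperature aggregation at 1 mg/mL in PBS (pH 7.4) preceded measurement; samples then went into 1 mM KCl. Triplicates per sample, two independent experiments averaged.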

[4] = Turbidity, derived count rate of scattered light; format: physicochemical; conditions: for Count Rate: derived count rate of scattered light (turbidity); for Log10 Count Rate: turbidity, derived count rate of scattered light, data of Figure 2D
[5] = TEM, 1 = fibrils present, 0 = non-fibrillar
[6] = TEM, 1 = fibrils present, 0 = non-fibrillar structures
[7] = category: fibrils present or non-fibrillar
[8] = zeta potential of peptide assemblies
[9] = zeta-potential of peptide, source data of Figure 2C
[10] = zeta-potential of the peptide assemblies, mean, Figure 3A source data
[11] = Log10 of derived count rate of scattered light (turbidity)
[12] = turbidity, Log10 of derived count rate of scattered light, Figure 3A source data
[13] = turbidity, log10 of derived count rate of scattered light
[14] = FigS12 panel A, fibril category by TEM
[15] = logarithm of count rate in kcps
[16] = log10 of derived count rate of scattered light (turbidity)

| Substance | TEM 2cat ([1]; Fig S10 panel D) | Fibril ([1]; Fig S10 panel E) | Fibril / Fibril Formation ([1]; TEM) | Fibril [1, 5] | Fibril [1, 6] | TEM 2cat [1, 7] | Zeta-Pot. [2, 8] | Zeta-Potential / mV [2, 9] | Zeta-Potential / mV [2, 10] | Log10 Count Rate [3, 11] | Count Rate / kcps [3] | Log10 Count Rate [3, 12] | Log10 Count Rate [3, 13] | Count Rate [4] | Log10 Count Rate [4] | Zeta-Pot. [2] | TEM 2cat [1, 14] | Fibril ([1]; FigS12 panel B, TEM) | Log10 Count Rate [3, 15] | Log10 Count Rate [3, 16] |
| --- | --- | --- | --- | --- | --- | --- | --- | --- | --- | --- | --- | --- | --- | --- | --- | --- | --- | --- | --- | --- |
| KIKIQINM | 1 | 1 | 1 | 1 | 1 | 1 | 8.51 | 10.17 mV | 8.51 mV | 2.418 | 262 kcps | 2.418 | 2.418 | 262.1 | 2.418 | – | – | – | – | – |
| KIKIQINMAQ | 1 | – | 1 | 1 | 1 | 1 | 3.07 | 6.27 mV | 3.07 mV | 3.768 | 5859 kcps | 3.768 | 3.768 | 5859 | 3.768 | – | – | – | – | – |
| KIKIQINMW | 1 | – | 1 | 1 | 1 | 1 | 19.7 | 17.12 mV | 19.7 mV | 2.38 | 240 kcps | 2.38 | 2.38 | 239.6 | 2.38 | – | – | – | – | – |
| KIKIQINMWA | 1 | – | 1 | 1 | 1 | 1 | 14.7 | 16.43 mV | 14.7 mV | 3.042 | 1101 kcps | 3.042 | 3.042 | 1101.2 | 3.042 | – | – | – | – | – |
| KIKIQINMWQ | 1 | 1 | 1 | 1 | 1 | 1 | – | 15.7 mV | 14.87 mV | 3.342 | 2196 kcps | 3.342 | 3.342 | 2196 | 3.342 | 14.87 | – | – | – | – |
| KIKQIIN | 0 | – | 0 | 0 | 0 | – | -11.7 | -5.929 mV | -11.7 mV | 1.806 | 64 kcps | 1.806 | 1.806 | 64.03 | 1.806 | – | 0 | 0 | 1.806 | – |
| KIKQIINM | 1 | 1 | 1 | 1 | 1 | 1 | 16.3 | 18.1 mV | 16.3 mV | 3.395 | 2481 kcps | 3.395 | 3.395 | 2481 | 3.395 | – | – | – | – | – |
| KIKQIINMWQ | 1 | 1 | 1 | 1 | 1 | 1 | – | 16.2 mV | 15.37 mV | 2.789 | 616 kcps | 2.789 | 2.789 | 615.5 | 2.789 | 15.37 | – | – | 2.789 | – |
| KIRGKFEKED | 0 | – | 0 | 0 | 0 | – | – | -7.197 mV | -12.7 mV | 2.331 | 214 kcps | 2.331 | 2.331 | 214.4 | 2.331 | -12.7 | 0 | 0 | – | – |
| KKFQKKFQ | 0 | – | 0 | 0 | 0 | – | – | -6.175 mV | -9.19 mV | 1.867 | 74 kcps | 1.867 | 1.867 | 73.6 | 1.867 | -9.19 | 0 | 0 | – | – |
| KNDKND | 0 | – | 0 | 0 | 0 | – | – | -11.85 mV | -15 mV | 1.719 | 52 kcps | 1.719 | 1.719 | 52.4 | 1.719 | -15 | 0 | 0 | – | – |
| KNERIKNERI | 0 | 0 | 0 | 0 | 0 | – | – | -11.61 mV | -16 mV | 2.508 | 322 kcps | 2.508 | 2.508 | 321.9 | 2.508 | -16 | 0 | 0 | – | – |
| KVKGVGK | 0 | – | 0 | 0 | 0 | – | – | -7.825 mV | -12.8 mV | 1.709 | 51 kcps | 1.709 | 1.709 | 51.17 | 1.709 | -12.8 | 0 | 0 | – | – |
| KVKVKVQV | 0 | – | 0 | 0 | 0 | – | – | -0.6533 mV | -3.41 mV | 1.975 | 94 kcps | 1.975 | 1.975 | 94.37 | 1.975 | -3.41 | 0 | 0 | – | – |
| KWKWQW | 0 | – | 0 | 0 | 0 | – | 7.55 | 3.331 mV | 7.55 mV | 3.189 | 1545 kcps | 3.189 | – | 1545 | 3.189 | – | 0 | 0 | 3.189 | 3.189 |
| KYKGAIIGNIK | 0 | – | 0 | 0 | 0 | – | – | -5.205 mV | -9.14 mV | 1.644 | 44 kcps | 1.644 | 1.644 | 44.1 | 1.644 | -9.14 | 0 | 0 | – | – |
| KYKYQY | 0 | – | 0 | 0 | 0 | – | -4.2 | -3.008 mV | -4.2 mV | 1.499 | 32 kcps | 1.499 | – | 31.53 | 1.499 | – | 0 | 0 | – | 1.499 |
| MDQMDQMDQMDQMDQ | 0 | 0 | 0 | 0 | 0 | – | – | -10.69 mV | -14.98 mV | 0.9823 | 10 kcps | 0.9823 | 0.9823 | 9.6 | 0.9823 | -14.98 | 0 | 0 | – | – |
